Results: US11041000B2, “Peptide inhibitors of interleukin-23 receptor and their use to treat inflammatory diseases” (priority 2019, dated 2021)
Numbered stars: 1 amine (or outer) side, 2 acyl side, 3 side chain; on linkers, the order of the positions; unused ones are H or OH. Bridge positions count the residues as written; N and C are the ends. Square brackets hold non-standard residues; d marks the D form. Peptide text beside a SMILES is read from it. X3 = CCc1ccc2c(C[C@H](N[*:1])C(=O)[*:2])c[nH]c2c1; Trp(7-Me) = Cc1cccc2c(C[C@H](N)C(=O)O)c[nH]c12; 2Nal = N[C@@H](Cc1ccc2ccccc2c1)C(=O)O; d2Nal = N[C@H](Cc1ccc2ccccc2c1)C(=O)O; AEF = NCCOc1ccc(C[C@H](N)C(=O)O)cc1; Cit = NC(=O)NCCC[C@H](N)C(=O)O; Pen = CC(C)(S)[C@H](N)C(=O)O; hLeu = CC(C)CC[C@H](N)C(=O)O; αMeK = C[C@](N)(CCCCN)C(=O)O; Dab = NCC[C@H](N)C(=O)O; Aib = CC(C)(N)C(=O)O; βAla = NCCC(=O)O; Sar = CNCC(=O)O

Columns and labels:
Assay type in all cases: in vitro ADME
[1] = Stability in simulated intestinal fluid (SIF); settings: simulated intestinal fluid with pancreatin, pH 6.8, 37° C., matrix is 100 fold dilution of standard SIF concentration; for half-life at 20 μM: read-out: SIF t½ (converted); for SIF t½: 20 μM
[2] = Stability in human fecal homogenate; settings: 20% fecal homogenate (supernatant), pH 6.8, 20% human fecal homogenate, anaerobic, 37° C., read-out: t½: Human Feces anaerobic (converted)
Procedure: (§1) Centrifuged the homogenate at 2800×g for 15 min. The supernatant is taken out and used for incubations. […] The final test compound concentration was 20 μM.

[3] = Stability in cynomolgus monkey fecal homogenate; settings: 20% fecal homogenate (supernatant), pH 6.8, 20% cynomolgus monkey fecal homogenate, anaerobic, 37° C., read-out: t½: Monkey Feces anaerobic (converted)
Procedure: as §1

Stability in rat plasma = settings: both sexes, SD rat plasma, EDTA, 37° C., read-out: t½: Rat Plasma EDTA (converted)

half-life at 20 μM [1] [h] | half-life at 20 μM [2] [h] | half-life at 20 μM [3] [h] | half-life at 20 μM (Stability in rat plasma) [h] | SIF t½ [1] [h] | SMILES
20 | > 24 | > 24 | > 24 |  | CC(=O)NCCCC[C@@H]1NC(=O)[C@H](Cc2c[nH]c3c(C)cccc23)NC(=O)[C@H]([C@@H](C)O)NC(=O)[C@H](CCNC(C)=O)NC(=O)[C@@H](NC(C)=O)C(C)(C)SSC(C)(C)[C@@H](C(=O)N[C@@H](Cc2ccc(OCCN)cc2)C(=O)N[C@@H](Cc2ccc3ccccc3c2)C(=O)N[C@@](C)(CCCCN)C(=O)N[C@@H](CCCCNC(C)=O)C(=O)N[C@@H](CC(N)=O)C(=O)N[C@H](CC(C)C)C(N)=O)NC1=O [compound 335] (Ac-[Pen][Dab](Ac)T[Trp(7-Me)]K(Ac)[Pen][AEF][2Nal][αMeK]K(Ac)N[dL]-NH2; disulfide 1-6)
10 | > 24 | > 24 | > 24 |  | CC(=O)NCCCC[C@@H]1NC(=O)[C@H](Cc2c[nH]c3c(C)cccc23)NC(=O)[C@H]([C@@H](C)O)NC(=O)[C@H](CCCNC(=N)N)NC(=O)[C@@H](NC(C)=O)C(C)(C)SSC(C)(C)[C@@H](C(=O)N[C@@H](Cc2ccc(OCCN)cc2)C(=O)N[C@@H](Cc2ccc3ccccc3c2)C(=O)N[C@@](C)(CCCCN)C(=O)N[C@@H](CCCCNC(C)=O)C(=O)N[C@@H](CC(N)=O)C(=O)N[C@H](CC(C)C)C(N)=O)NC1=O [compound 336] (Ac-[Pen]RT[Trp(7-Me)]K(Ac)[Pen][AEF][2Nal][αMeK]K(Ac)N[dL]-NH2; disulfide 1-6)
 | > 24 | > 24 | > 24 | 24 | CC(=O)NCCCC[C@@H]1NC(=O)[C@H](Cc2c[nH]c3c(C)cccc23)NC(=O)[C@H]([C@@H](C)O)NC(=O)[C@H](CCC(C)C)NC(=O)[C@@H](NC(C)=O)C(C)(C)SSC(C)(C)[C@@H](C(=O)N[C@@H](Cc2ccc(OCCN)cc2)C(=O)N[C@@H](Cc2ccc3ccccc3c2)C(=O)N[C@@](C)(CCCCN)C(=O)N[C@@H](CCCCNC(C)=O)C(=O)N[C@@H](CC(N)=O)C(=O)N[C@H](CC(C)C)C(N)=O)NC1=O [compound 337] (Ac-[Pen][hLeu]T[Trp(7-Me)]K(Ac)[Pen][AEF][2Nal][αMeK]K(Ac)N[dL]-NH2; disulfide 1-6)
 | > 24 | 18 | > 24 | 24 | CC(=O)NCCCC[C@H](NC(=O)[C@](C)(CCCCN)NC(=O)[C@H](Cc1ccc2ccccc2c1)NC(=O)[C@H](Cc1ccc(OCCN)cc1)NC(=O)[C@H]1NC(=O)[C@H](CCCNC(N)=O)NC(=O)[C@H](Cc2c[nH]c3c(C)cccc23)NC(=O)[C@H]([C@@H](C)O)NC(=O)[C@H](CC(N)=O)NC(=O)[C@@H](NC(C)=O)C(C)(C)SSC1(C)C)C(=O)N[C@@H](CC(N)=O)C(=O)N(C)CC(N)=O [compound 339] (Ac-[Pen]NT[Trp(7-Me)][Cit][Pen][AEF][2Nal][αMeK]K(Ac)N[Sar]-NH2; disulfide 1-6)
17 | > 24 | > 24 | > 24 |  | CC(=O)NCCCC[C@H](NC(=O)[C@](C)(CCCCN)NC(=O)[C@H](Cc1ccc2ccccc2c1)NC(=O)[C@H](Cc1ccc(OCCN)cc1)NC(=O)[C@H]1NC(=O)[C@H](CCCNC(N)=O)NC(=O)[C@H](Cc2c[nH]c3c(C)cccc23)NC(=O)[C@H]([C@@H](C)O)NC(=O)[C@H](CC(N)=O)NC(=O)[C@@H](NC(C)=O)C(C)(C)SSC1(C)C)C(=O)N[C@@H](CC(N)=O)C(=O)NC(C)(C)C(=O)NCCC(N)=O [compound 340] (Ac-[Pen]NT[Trp(7-Me)][Cit][Pen][AEF][2Nal][αMeK]K(Ac)N[Aib][βAla]-NH2; disulfide 1-6)
17 | > 24 | > 24 | > 24 |  | CC(=O)NCCCC[C@H](NC(=O)[C@](C)(CCCCN)NC(=O)[C@H](Cc1ccc2ccccc2c1)NC(=O)[C@H](Cc1ccc(OCCN)cc1)NC(=O)[C@H]1NC(=O)[C@H](CCCNC(N)=O)NC(=O)[C@H](Cc2c[nH]c3c(C)cccc23)NC(=O)[C@H]([C@@H](C)O)NC(=O)[C@H](CC(N)=O)NC(=O)[C@@H](NC(C)=O)C(C)(C)SSC1(C)C)C(=O)N[C@@H](CC(N)=O)C(=O)NC(C)(C)C(=O)NCC(N)=O [compound 341] (Ac-[Pen]NT[Trp(7-Me)][Cit][Pen][AEF][2Nal][αMeK]K(Ac)N[Aib]G-NH2; disulfide 1-6)
16 | 12 | 15 | > 24 |  | CC(=O)NCCCC[C@H](NC(=O)[C@](C)(CCCCN)NC(=O)[C@H](Cc1ccc2ccccc2c1)NC(=O)[C@H](Cc1ccc(OCCN)cc1)NC(=O)[C@H]1NC(=O)[C@H](CCCNC(N)=O)NC(=O)[C@H](Cc2c[nH]c3c(C)cccc23)NC(=O)[C@H]([C@@H](C)O)NC(=O)[C@H](CC(N)=O)NC(=O)[C@@H](NC(C)=O)C(C)(C)SSC1(C)C)C(=O)N[C@@H](CC(N)=O)C(=O)NC(C)(C)C(=O)N[C@@H](C)C(N)=O [compound 342] (Ac-[Pen]NT[Trp(7-Me)][Cit][Pen][AEF][2Nal][αMeK]K(Ac)N[Aib]A-NH2; disulfide 1-6)
9 | > 24 | > 24 | > 24 |  | CC(=O)NCCCC[C@H](NC(=O)[C@](C)(CCCCN)NC(=O)[C@H](Cc1ccc2ccccc2c1)NC(=O)[C@H](Cc1ccc(OCCN)cc1)NC(=O)[C@H]1NC(=O)[C@H](CCCNC(N)=O)NC(=O)[C@H](Cc2c[nH]c3c(C)cccc23)NC(=O)[C@H]([C@@H](C)O)NC(=O)[C@H](CC(N)=O)NC(=O)[C@@H](NC(C)=O)C(C)(C)SSC1(C)C)C(=O)N[C@@H](CC(N)=O)C(=O)NC(C)(C)C(=O)N[C@H](CCCCN)C(N)=O [compound 344] (Ac-[Pen]NT[Trp(7-Me)][Cit][Pen][AEF][2Nal][αMeK]K(Ac)N[Aib][dK]-NH2; disulfide 1-6)
19 | > 24 | > 24 | 24 |  | CC(=O)NCCCC[C@H](NC(=O)[C@](C)(CCCCN)NC(=O)[C@H](Cc1ccc2ccccc2c1)NC(=O)[C@H](Cc1ccc(OCCN)cc1)NC(=O)[C@H]1NC(=O)[C@H](CCCNC(N)=O)NC(=O)[C@H](Cc2c[nH]c3c(C)cccc23)NC(=O)[C@H]([C@@H](C)O)NC(=O)[C@H](CC(N)=O)NC(=O)[C@@H](NC(C)=O)C(C)(C)SSC1(C)C)C(=O)N[C@@H](CC(N)=O)C(=O)NC(C)(C)C(=O)N[C@H](Cc1ccccc1)C(N)=O [compound 346] (Ac-[Pen]NT[Trp(7-Me)][Cit][Pen][AEF][2Nal][αMeK]K(Ac)N[Aib][dF]-NH2; disulfide 1-6)
12 | > 24 | > 24 | > 24 |  | CC(=O)NCCCC[C@H](NC(=O)[C@](C)(CCCCN)NC(=O)[C@H](Cc1ccc2ccccc2c1)NC(=O)[C@H](Cc1ccc(OCCN)cc1)NC(=O)[C@H]1NC(=O)[C@H](CCCNC(N)=O)NC(=O)[C@H](Cc2c[nH]c3c(C)cccc23)NC(=O)[C@H]([C@@H](C)O)NC(=O)[C@H](CC(N)=O)NC(=O)[C@@H](NC(C)=O)C(C)(C)SSC1(C)C)C(=O)N[C@@H](CC(N)=O)C(=O)NC(C)(C)C(=O)N[C@H](Cc1ccc(O)cc1)C(N)=O [compound 347] (Ac-[Pen]NT[Trp(7-Me)][Cit][Pen][AEF][2Nal][αMeK]K(Ac)N[Aib][dY]-NH2; disulfide 1-6)
13 | > 24 | > 24 | > 24 |  | CC(=O)NCCCC[C@H](NC(=O)[C@](C)(CCCCN)NC(=O)[C@H](Cc1ccc2ccccc2c1)NC(=O)[C@H](Cc1ccc(OCCN)cc1)NC(=O)[C@H]1NC(=O)[C@H](CCCNC(N)=O)NC(=O)[C@H](Cc2c[nH]c3c(C)cccc23)NC(=O)[C@H]([C@@H](C)O)NC(=O)[C@H](CC(N)=O)NC(=O)[C@@H](NC(C)=O)C(C)(C)SSC1(C)C)C(=O)N[C@@H](CC(N)=O)C(=O)NC(C)(C)C(=O)N[C@H](Cc1ccc2ccccc2c1)C(N)=O [compound 348] (Ac-[Pen]NT[Trp(7-Me)][Cit][Pen][AEF][2Nal][αMeK]K(Ac)N[Aib][d2Nal]-NH2; disulfide 1-6)
 | > 24 | > 24 | > 24 | 24 | CCc1ccc2c(C[C@@H]3NC(=O)[C@H]([C@@H](C)O)NC(=O)[C@H](CC(N)=O)NC(=O)[C@@H](NC(C)=O)C(C)(C)SSC(C)(C)[C@@H](C(=O)N[C@@H](Cc4ccc(OCCN)cc4)C(=O)N[C@@H](Cc4ccc5ccccc5c4)C(=O)N[C@@](C)(CCCCN)C(=O)N[C@@H](CCCCNC(C)=O)C(=O)N[C@@H](CC(N)=O)C(=O)N[C@H](CCCCN)C(N)=O)NC(=O)[C@H](CCCCNC(C)=O)NC3=O)c[nH]c2c1 [compound 349] (Ac-[Pen]NT[X3]K(Ac)[Pen][AEF][2Nal][αMeK]K(Ac)N[dK]-NH2; disulfide 1-6)
12 | > 24 | > 24 | > 24 |  | CC(=O)NCCCC[C@@H]1NC(=O)[C@H](Cc2c(C)[nH]c3ccccc23)NC(=O)[C@H]([C@@H](C)O)NC(=O)[C@H](CC(N)=O)NC(=O)[C@@H](NC(C)=O)C(C)(C)SSC(C)(C)[C@@H](C(=O)N[C@@H](Cc2ccc(OCCN)cc2)C(=O)N[C@@H](Cc2ccc3ccccc3c2)C(=O)N[C@@](C)(CCCCN)C(=O)N[C@@H](CCCCNC(C)=O)C(=O)N[C@@H](CC(N)=O)C(=O)N[C@H](CCCCN)C(N)=O)NC1=O [compound 351]
